Laboratory results reported in US20130217672A1, “(+)-3-HYDROXYMORPHINAN-BASED POLYCYCLE DERIVATIVES” (GREEN CROSS CORPORATION, priority 2010, published 2013).
Counter-ions that a name gives are not always drawn.

Key:
[1] = Cell cytotoxicity test: HT22 cells co-treated with 5 mM glutamate and compound, MTT readout; format: cell-based, mouse; conditions: mouse, HT22 cells (mouse hippocampal neuron)
Experimental: (§1) HT22 cells (mouse hippocampal neuron, Salk Institute and KRIBB) were placed in a 96-well plate 3×10^3 cells/well for 16 h before treatment. Five millimolar glutamate and the inventive compounds were co-treated and incubated for 24 h in growth media (DMEM with 10% FBS and 1% penicillin streptomycin). MTT (3-(4,5-dimethylthazol-2-yl)-2,5-diphenyltetrazolium bromide, Sigma®) was treated for 4 h and detected with a plate reader at a wavelength=450 nm [Da-Qing, et. al., Anti-oxidant and anti-inflammatory activities of macelignan in murine hippocampal cell line and primary culture of rat microglia cells, BBRC, 2005, 331, 1264-1269].
(§2) The EC50 values were statistically analyzed using Prism® (GraphPad Software Inc., San Diego, Calif.). The results of the cell cytotoxicity test are summarized in Table 1 (EC50: neuroprotective effect against glutamate toxicity, and CC50: cytotoxicity of compound).

[2] = tested on: HT22 cells (mouse hippocampal neuron); assay: as above; format: cell-based; conditions: Mus musculus, HT-22, five millimolar glutamate co-treated, 24 h, read-out: EC50: neuroprotective effect against glutamate toxicity
Experimental: as §1, §2

[3] = tested on: dopamine (DA) neurons in substantia nigra pars compacta; conditions: MPTP model, daily injections; cited from earlier work

Oc1cc2c(c3c1OCCCN3)C[C@@H]1NCC[C@]23CCCC[C@H]13 [Example 2, (7S,7aS,11aS)-3,4,5,6,7,7a,8,9,10,11-Decahydro-2H-7,11a-(epiminoethano)phenanthro[2,1-b][1,4]oxazepin-13-ol TFA salt]
CC50 at 24 h [1]: > 100 µM | EC50 [2]: 27.7 µM

Oc1ccc2[nH]c3c(O)cc4c(c3c2c1)C[C@@H]1NCC[C@]42CCCC[C@H]12 [Example 13, (4aS,13S,13aS)-1,2,3,4,7,12,13,13a-Octahydro-13,4a-(epiminoethano)naphtho[1,2-c]carbazole-6,10-diol TFA salt]
CC50 at 24 h [1]: > 100 µM | EC50 [2]: 1.11 µM

Oc1cc2c(c3c1NCCO3)C[C@@H]1NCC[C@]23CCCC[C@H]13 [Example 7, (6S,6aS,10aS)-1,2,3,5,6,6a,7,8,9,10-Decahydro-6,10a-(epiminoethano)phenanthro[1,2-b][1,4]oxazin-12-ol TFA salt]
CC50 at 24 h [1]: 13.5 µM | EC50 [2]: 0.65 µM

Oc1cc2c(c3c1OCCO3)C[C@@H]1NCC[C@]23CCCC[C@H]13 [Example 5, (6S,6aS,10aS)-3,5,6,6a,7,8,9,10-Octahydro-2H-6,10a-(epiminoethano)phenanthro[1,2-b][1,4]dioxin-12-ol TFA salt]
CC50 at 24 h [1]: > 100 µM | EC50 [2]: 4.97 µM

Oc1cccc2c1[nH]c1c(O)cc3c(c12)C[C@@H]1NCC[C@]32CCCC[C@H]12 [Example 11, (4aS,13S,13aS)-1,2,3,4,7,12,13,13a-Octahydro-13,4a-(epiminoethano)naphtho[1,2-c]carbazole-6,8-diol TFA salt]
CC50 at 24 h [1]: 44 µM | EC50 [2]: 0.303 µM

Oc1cc2c(c3nc4ccccc4nc13)C[C@@H]1NCC[C@]23CCCC[C@H]13 [Example 10, (4aS,14S,14aS)-2,3,4,13,14,14a-Hexahydro-1H-14,4a-(epiminoethano)naphtho[2,1-a]phenazin-6-ol TFA salt]
CC50 at 24 h [1]: 10.7 µM | EC50 [2]: 0.354 µM

Oc1cc2c(c3c1NC(c1ccccc1)CO3)C[C@@H]1NCC[C@]23CCCC[C@H]13 (stereo partly drawn) [Example 8, (6S,6aS,10aS)-2-Phenyl-1,2,3,5,6,6a,7,8,9,10-decahydro-6,10a-(epiminoethano)phenanthro[1,2-b][1,4]oxazin-12-ol TFA salt]
CC50 at 24 h [1]: 8.1 µM | EC50 [2]: 0.457 µM

CC1COc2c3c(cc(O)c2N1)[C@]12CCCC[C@@H]1[C@H](C3)NCC2 (stereo partly drawn) [Example 6, (6S,6aS,10aS)-2-Methyl-1,2,3,5,6,6a,7,8,9,10-decahydro-6,10a-(epiminoethano)phenanthro[1,2-b][1,4]oxazin-12-ol TFA salt]
CC50 at 24 h [1]: > 100 µM | EC50 [2]: 0.314 µM

Oc1cc2c(c3c1OCCN3)C[C@@H]1NCC[C@]23CCCC[C@H]13 [Example 1, (6S,6aS,10aS)-2,3,4,5,6,6a,7,8,9,10-Decahydro-6,10a-(epiminoethano)phenanthro[2,1-b][1,4]oxazin-12-ol TFA salt]
CC50 at 24 h [1]: > 100 µM | EC50 [2]: 26.9 µM

CC(=O)N1CCOc2c(O)cc3c(c21)C[C@@H]1NCC[C@]32CCCC[C@H]12 [Example 3, 1-((6S,6aS,10aS)-12-Hydroxy-2,3,6,6a,7,8,9,10-octahydro-6,10a-(epiminoethano)phenanthro[2,1-b][1,4]oxazin-4(5H)-yl)ethanone TFA salt]
CC50 at 24 h [1]: > 100 µM | EC50 [2]: 8.5 µM

Oc1ccc2c(c1)[C@@]13CCCC[C@H]1[C@@H](C2)NCC3 [(+)-3-HM, (+)-3-hydroxymorphinan]
DA levels in striatum [3]: restored | DA neurons in substantia nigra pars compacta [3]: protected

CN1CCOc2c(O)cc3c(c21)C[C@@H]1NCC[C@]32CCCC[C@H]12 [Example 4, (6S,6aS,10aS)-4-Methyl-2,3,4,5,6,6a,7,8,9,10-decahydro-6,10a-(epiminoethano)phenanthro[2,1-b][1,4]oxazin-12-ol TFA salt]
CC50 at 24 h [1]: > 100 µM | EC50 [2]: 9.6 µM

Oc1cc2c(c3nccnc13)C[C@@H]1NCC[C@]23CCCC[C@H]13 [Example 9, (6S,6aS,10aS)-6,6a,7,8,9,10-Hexahydro-5H-6,10a-(epiminoethano)naphtho[2,1-f]quinoxalin-12-ol TFA salt]
CC50 at 24 h [1]: 44.8 µM | EC50 [2]: 16.3 µM

Oc1cc2c(c3c1[nH]c1ccccc13)C[C@@H]1NCC[C@]23CCCC[C@H]13 [Example 12, (4aS,13S,13aS)-1,2,3,4,7,12,13,13a-Octahydro-13,4a-(epiminoethano)naphtho[1,2-c]carbazol-6-ol TFA salt]
CC50 at 24 h [1]: 49.8 µM | EC50 [2]: 0.71 µM

Cc1ccc2[nH]c3c(O)cc4c(c3c2c1)C[C@@H]1NCC[C@]42CCCC[C@H]12 [Example 14, (4aS,13S,13aS)-10-Methyl-1,2,3,4,7,12,13,13a-octahydro-13,4a-(epiminoethano)naphtho[1,2-c]carbazol-6-ol TFA salt]
CC50 at 24 h [1]: 5.7 µM | EC50 [2]: 0.908 µM
